Source: publication PMC7327383, “The affinity and selectivity of α‐adrenoceptor antagonists, antidepressants, and antipsychotics for the human α1A, α1B, and α1D‐adrenoceptors” (Pharmacology Research & Perspectives, 2020)
pIC50, pKd: −log10 of the molar value. Where two headings read alike, the source gives them in different places.

Assays:
[1] = target: T1, human α1A-adrenoceptor (Homo sapiens, UniProt P35348); assay: [3H]prazosin whole-cell competition binding, CHO-α1A cells
T1 construct: CHO cells stably expressing either the full‐length human α1A, α1B, or α1D‐adrenoceptor
T1 sequence (P35348 1-466): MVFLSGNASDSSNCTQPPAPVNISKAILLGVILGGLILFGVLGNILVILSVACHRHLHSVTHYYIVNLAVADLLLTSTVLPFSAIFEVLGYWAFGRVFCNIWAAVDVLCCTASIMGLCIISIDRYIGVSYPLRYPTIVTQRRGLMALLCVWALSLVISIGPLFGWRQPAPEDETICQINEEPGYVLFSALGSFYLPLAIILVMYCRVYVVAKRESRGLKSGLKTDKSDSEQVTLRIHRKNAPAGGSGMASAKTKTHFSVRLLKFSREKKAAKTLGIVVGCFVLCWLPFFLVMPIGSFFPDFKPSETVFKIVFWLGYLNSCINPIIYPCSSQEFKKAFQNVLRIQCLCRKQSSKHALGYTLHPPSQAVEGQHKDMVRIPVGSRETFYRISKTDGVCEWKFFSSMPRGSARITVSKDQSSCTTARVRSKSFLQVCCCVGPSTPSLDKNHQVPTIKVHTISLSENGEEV

[2] = target: T2, full-length human α1D-adrenoceptor (Homo sapiens, UniProt P25100); assay: [3H]prazosin whole-cell competition binding, CHO-α1D cells; conditions: for Log KD α1D site 2: low-affinity component of two-component curve
T2 sequence (P25100 1-572): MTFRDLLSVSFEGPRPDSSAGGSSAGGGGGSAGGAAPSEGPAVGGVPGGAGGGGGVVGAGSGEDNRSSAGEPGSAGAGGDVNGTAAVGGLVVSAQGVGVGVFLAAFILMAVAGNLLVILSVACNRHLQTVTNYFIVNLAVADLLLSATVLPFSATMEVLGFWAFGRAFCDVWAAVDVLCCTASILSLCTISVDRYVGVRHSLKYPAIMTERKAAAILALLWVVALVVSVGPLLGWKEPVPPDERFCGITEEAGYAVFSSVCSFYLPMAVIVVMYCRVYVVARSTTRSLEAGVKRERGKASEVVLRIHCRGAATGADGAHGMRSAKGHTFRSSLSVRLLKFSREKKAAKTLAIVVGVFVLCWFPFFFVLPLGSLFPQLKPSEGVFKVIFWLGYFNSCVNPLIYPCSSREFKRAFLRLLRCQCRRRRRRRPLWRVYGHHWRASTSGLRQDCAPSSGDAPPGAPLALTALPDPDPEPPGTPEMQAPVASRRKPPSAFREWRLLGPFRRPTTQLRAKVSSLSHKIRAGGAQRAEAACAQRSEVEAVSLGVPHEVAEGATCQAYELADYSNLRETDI

[3] = target: T3, human α1B-adrenoceptor (Homo sapiens, UniProt P35368); assay: [3H]prazosin whole-cell competition binding, CHO-α1B cells; conditions: for Kd: read-out: Log KD α1B (converted); for Log KD α1B: result in words: no inhibition of [3H]prazosin binding at maximum concentration possible; for binding at α1B: result in words in the Log KD α1B column; for binding at α1B (result in words): up to the maximum concentration
T3 construct: CHO cells stably expressing either the full‐length human α1A, α1B, or α1D‐adrenoceptor
T3 sequence (P35368 1-520): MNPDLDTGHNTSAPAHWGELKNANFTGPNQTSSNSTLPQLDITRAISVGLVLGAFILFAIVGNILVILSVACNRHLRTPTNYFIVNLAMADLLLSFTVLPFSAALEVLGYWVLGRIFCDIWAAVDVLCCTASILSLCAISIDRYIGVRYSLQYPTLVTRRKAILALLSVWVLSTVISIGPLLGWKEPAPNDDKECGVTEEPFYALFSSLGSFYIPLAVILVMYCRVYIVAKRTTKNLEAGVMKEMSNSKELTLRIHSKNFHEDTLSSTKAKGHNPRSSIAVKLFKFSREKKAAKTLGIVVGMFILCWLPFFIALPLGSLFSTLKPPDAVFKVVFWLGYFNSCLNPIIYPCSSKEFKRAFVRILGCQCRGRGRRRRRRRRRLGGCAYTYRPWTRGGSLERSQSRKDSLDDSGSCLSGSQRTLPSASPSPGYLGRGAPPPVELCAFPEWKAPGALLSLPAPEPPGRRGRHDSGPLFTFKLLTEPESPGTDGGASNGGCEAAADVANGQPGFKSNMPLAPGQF

[4] = ratio of KD values, printed under α1A = higher α1A affinity, 1.0 under vs = none
[5] = ratio, 1 = no selectivity for a subtype over another
[6] = single-component inhibition curve, given as log KD (negative), mean ± SE mean, read-out: Log KD α1A (converted)
[7] = percentage of inhibition through first component, control
[8] = ratio of KD values, higher α1D affinity (site 1 KD)
[9] = two-component inhibition curve, proportion of site 1
[10] = single-component inhibition curve, given as log KD (negative), mean ± SE mean
[11] = log KD from 3H-prazosin whole cell binding, CHO cells, mean ± s.e.mean
[12] = ratio of KD values, higher α1A affinity, 1.0 under vs = none
[13] = selectivity ratio, 1 = no selectivity for a given receptor subtype over another
[14] = app: top concentration inhibited most but not all specific binding, curve extrapolated

COc1cc2nc(N3CCN(C(=O)c4ccco4)[C@H]4CCCC[C@H]43)nc(N)c2cc1OC (racemic) [Cyclazosin]
Selectivity ratio α1A vs α1B [1, 4]: 1.6 fold
selectivity α1A vs 1D [1, 5]: 9.5
Kd [1, 6]: 1.29 nM
pKd ([2]; Log KD α1D site 1, high-affinity component of two-component curve, control, used for selectivity): 9.87
pKd ([2]; affinity, subtype not given, by Table 1 reached at α1D site 1): > 9.60
Log KD α1D site 2 ([2]; control): −7.44 ± 0.10
% site 1 α1D [2, 7]: 56.8 ± 3.4% site 1
Selectivity ratio α1A vs α1D [2, 8]: 9.5 fold
Selectivity ratio α1B vs α1D [2, 8]: 15 fold
% site 1 α1D [2, 9]: -9.87 ± 0.06 -7.44 ± 0.10 56.8 ± 3.4% site 1
selectivity α1B vs α1D [3, 5]: 15
Kd [3, 10]: 2.09 nM

COc1ccccc1N1CCN(CC2CN3C(=O)N(C)c4ccccc4C3=N2)CC1 (stereo not shown) [2-MPMDQ]
Log KD α1A [1, 11]: -9.06 ± 0.07
% site 1 α1D [2, 9]: 64.0 ± 2.1%
Log KD α1B [3, 11]: -7.37 ± 0.04

O=C1Nc2ccccc2C2=NC(CN3CCN(c4ccccc4)CC3)CN12 (stereo not shown) [2-PMDQ]
Log KD α1A [1, 11]: -8.19 ± 0.09
% site 1 α1D ([2]; share of site 1 in the two-component inhibition curve): 57.6 ± 2.8%
% site 1 α1D [2, 9]: 57.6 ± 2.8%
Log KD α1B [3, 11]: -6.95 ± 0.05

COc1ccccc1N1CCN(CC2CN3C(=O)N(C)c4ccccc4C3=N2)CC1 (stereo not shown) [2‐MPMDQ]
Log KD α1A [1, 10]: −9.06 ± 0.07
% site 1 α1D [2, 7]: 64.0 ± 2.1% site1
Log KD α1B [3, 10]: −7.37 ± 0.04

O=C1Nc2ccccc2C2=NC(CN3CCN(c4ccccc4)CC3)CN12 (stereo not shown) [2‐PMDQ]
Log KD α1A [1, 10]: −8.19 ± 0.09
% site 1 α1D [2, 7]: 57.6 ± 2.8% site 1
Log KD α1B [3, 10]: −6.95 ± 0.05

COc1ccccc1N1CCN(CCCNc2c(C)c(=O)n(C)c(=O)n2C)CC1 [5-methyl-urapidil]
Log KD α1A [1]: -8.23 ± 0.05
selectivity α1A vs 1D [1]: 417
selectivity α1A vs α1B [1]: 148
Log KD α1D [2]: -5.61 ± 0.07
Log KD α1B [3]: -6.06 ± 0.04
selectivity α1B vs α1D [3]: 2.8

COc1ccccc1N1CCN(CCCNc2c(C)c(=O)n(C)c(=O)n2C)CC1 [5‐methyl‐urapidil]
Selectivity ratio α1A vs α1B [1]: 148 fold
Selectivity ratio α1A vs α1D [1]: 417 fold
Log KD α1A [1, 10]: −8.23 ± 0.05
Log KD α1D [2, 10]: −5.61 ± 0.07
Log KD α1B [3]: −6.06 ± 0.04
Selectivity ratio α1B vs α1D [3]: 2.8 fold

COc1cccc2c1CCC[C@H]2CN(C)CCc1ccc2ccoc2c1.CS(=O)(=O)O [A80426]
Selectivity ratio α1A vs α1D [1, 12]: 3.1 fold
Selectivity ratio α1A vs α1B [1, 4]: 3.1 fold
selectivity α1A vs 1D [1, 5]: 3.1
selectivity α1A vs α1B [1, 5]: 3.1
selectivities α1A vs α1B [1, 13]: 3.1
selectivities α1A vs α1D [1, 13]: 3.1
Log KD α1A [1, 10]: −6.57 ± 0.05
Selectivity ratio α1B vs α1D [2, 8]: 1.0 fold
Log KD α1D [2, 10]: −6.07 ± 0.07
selectivity α1B vs α1D [3, 5]: 1.0
Log KD α1B [3, 10]: −6.08 ± 0.02

N=C(CC(O)COc1ccccc1-c1ccccc1)N1CCCCC1 (stereo not shown) [AH11110A]
Selectivity ratio α1A vs α1D [1, 12]: 32 fold
Selectivity ratio α1A vs α1B [1, 4]: 6.8 fold
Log KD α1A [1, 10]: −6.48 ± 0.03
Log KD α1D [2, 10]: −4.98 ± 0.06
Selectivity ratio α1B vs α1D ([3]; ratio of KD values, higher α1B affinity, 1.0 under vs = none): 4.7 fold
Log KD α1B [3, 10]: −5.65 ± 0.09

COc1ccccc1N1CCN(CCN2C(=O)c3ccccc3C(C)(C)C2=O)CC1 [ARC239]
Log KD α1A [1, 10]: −9.35 ± 0.08
% site 1 α1D [2, 7]: 60.5 ± 1.4% site 1
Log KD α1B [3, 10]: −8.15 ± 0.07

COc1ccc2cccc(CCNC(C)=O)c2c1 [Agomelatine]
Kd ([1]; app: top concentration inhibited most but not all specific binding, curve extrapolated, read-out: Log KD α1A (apparent) (converted)): 26900 nM
Selectivity ratio α1A vs α1B [1, 4]: >3.7 fold
pIC50 [2]: < 4.50
Log KD α1B: result in words [3]: No binding to 100 µmol/L
binding at α1B [3]: No binding to 100µM
binding at α1B (result in words) [3]: No binding to 100µM

CCN1CCCC1CNC(=O)c1cc(S(=O)(=O)CC)c(N)cc1OC (stereo not shown) [Amisulpiride]
Log KD α1A [1, 10]: −5.05 ± 0.04
Log KD α1D (apparent) [2, 14]: −4.55 ± 0.08^app
Log KD α1B: result in words [3]: No binding to 100 µmol/L
binding at α1B [3]: No binding to 100µM
binding at α1B (result in words) [3]: No binding to 100µM

Cc1ccc(/N=C/N(C)/C=N/c2ccc(C)cc2C)c(C)c1 [Amitraz]
Selectivity ratio α1A vs α1B [1]: >33 fold
Selectivity ratio α1A vs α1D [1]: 2.8 fold
Kd [1, 6]: 3020 nM
pKd [2]: 5.08
Selectivity ratio α1B vs α1D [2]: >12 fold
selectivity α1B vs α1D [3, 5]: >12
IC50 ([3]; read-out: Log IC50 α1B (converted)): > 100000 nM

CN(C)CCC=C1c2ccccc2CCc2ccccc21 [Amitriptyline]
Selectivity ratio α1A vs α1B [1]: 93 fold
Selectivity ratio α1A vs α1D [1]: 87 fold
selectivities α1A vs α1B [1]: 93
selectivity α1A vs α1B [1]: 93
pKd ([1]; Log KD α1A, single-component inhibition curve, given as log KD (negative), mean ± SE mean): 8.19
pKd ([2]; Log KD α1D, single-component inhibition curve, given as log KD (negative), mean ± SE mean): 6.25
Selectivity ratio α1B vs α1D [2, 8]: 1.1 fold
selectivity α1B vs α1D [3, 5]: 1.1
Kd [3, 10]: 603 nM

CN1[C@H]2C[C@H](OC(=O)[C@H](CO)c3ccccc3)C[C@@H]1[C@@H](O)C2 [Anisodamine]
Log KD α1A [1, 10]: −5.21 ± 0.03
Log KD α1D [2, 10]: −4.21 ± 0.05
Log KD α1B (apparent) [3, 14]: −3.45 ± 0.04^app

CC1c2ccccc2CN1CC1=NCCN1 (stereo not shown) [BRL44408]
Selectivity ratio α1A vs α1D [1, 12]: 7.2 fold
Selectivity ratio α1A vs α1B [1, 4]: 17 fold
Log KD α1A [1, 10]: −5.92 ± 0.09
Selectivity ratio α1B vs α1D [2, 8]: 2.4 fold
Log KD α1D [2, 10]: −5.06 ± 0.05
selectivity α1B vs α1D [3, 5]: 2.4
Log KD α1B [3, 10]: −4.68 ± 0.07

COc1cccc(OC)c1OCCNCC1CSc2ccccc2O1 (stereo not shown) [Benoxathian]
Log KD α1A [1, 10]: −9.08 ± 0.05
Log KD α1D site 1 ([2]; high-affinity component of two-component curve, control, used for selectivity): −7.91 ± 0.10
Log KD α1D site 2 ([2]; control): −5.62 ± 0.19
% site 1 α1D [2, 7]: 62.5 ± 3.4% Site 1
% site 1 α1D [2, 9]: -7.91 ± 0.10 -5.62 ± 0.19 62.5 ± 3.4% site 1
Log KD α1B [3, 10]: −7.32 ± 0.03
